This note sets out measurements from PubChem BioAssay (NCI).

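Cultured in 96-well plates, cells were exposed to test compound for 48 hours across five concentrations. GI50 = concentration required for 50% inhibition of growth. TGI is the concentration that stops growth completely.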 Bounds are passed on as bounds.

Some test systems named below: MOLT-4 leukemia; NCI/ADR-RES ovarian; HT29 colon; MDA-MB-435; SF-539 CNS; MDA-MB-231 breast; HCC-2998 colon; SF-268 CNS; SK-MEL-5 melanoma; SW-620 colon.
Common to all, as to assay: NCI tumour cell line growth inhibition, 48 h

On to `CN(C)C1CCN(Cc2ccc(NC(=O)c3cncc(C#Cc4cnc(N)c5ncccc45)c3)cc2C(F)(F)F)CC1`, for which the GI50 in the assay with MOLT-4 leukemia is 1.55 µM; in the assay with NCI/ADR-RES ovarian it was 1.23 µM; in the assay with HT29 colon, 1.3 µM; in the assay with MDA-MB-435, 0.922 µM; in the assay on SF-539 CNS, 2.13 µM; in the assay on MDA-MB-231 breast, 0.742 µM. For the same compound, the GI50 with HCC-2998 colon was 9.21 µM; in the assay on SF-268 CNS it was 1.68 µM; with SK-MEL-5 melanoma it was 5.51 µM; in the assay with SW-620 colon it was 1.32 µM. For the same compound, the TGI with MOLT-4 leukemia was 5.57 µM; in the assay with NCI/ADR-RES ovarian, 2.7 µM; in the assay on HT29 colon, 6.82 µM; in the assay with MDA-MB-435, 1.83 µM; with SF-539 CNS it was 8.98 µM; with MDA-MB-231 breast it was 1.61 µM. The TGI stood at 20.2 µM in the assay with HCC-2998 colon, 4.72 µM with SF-268 CNS, 12.9 µM in the assay on SK-MEL-5 melanoma and 4.03 µM in the assay with SW-620 colon.
As to `COc1ccc(-c2coc3cc(O)ccc3c2=O)cc1`, the TGI in the assay on MOLT-4 leukemia, in the assay with NCI/ADR-RES ovarian, in the assay with HT29 colon, in the assay on MDA-MB-435, with SF-539 CNS and with MDA-MB-231 breast was more than 100 µM throughout. The TGI in the assay on HCC-2998 colon, in the assay with SF-268 CNS, in the assay with SK-MEL-5 melanoma and in the assay with SW-620 colon was more than 100 µM in each case.
With `CNS(=O)(=O)OCC1OC(n2cnc3cncnc32)C(O)C1O` (stereo unspecified), the GI50 in the assay on MOLT-4 leukemia, in the assay with NCI/ADR-RES ovarian, in the assay with HT29 colon, in the assay on MDA-MB-435, in the assay with SF-539 CNS and in the assay with MDA-MB-231 breast was more than 100 µM in each case. Also, the GI50 in the assay with HCC-2998 colon, in the assay with SF-268 CNS, with SK-MEL-5 melanoma and in the assay on SW-620 colon was more than 100 µM throughout. In addition, the TGI in the assay with MOLT-4 leukemia, in the assay with NCI/ADR-RES ovarian, in the assay with HT29 colon, in the assay on MDA-MB-435, in the assay with SF-539 CNS and with MDA-MB-231 breast was more than 100 µM each time. The TGI in the assay on HCC-2998 colon, in the assay on SF-268 CNS, with SK-MEL-5 melanoma and in the assay on SW-620 colon was more than 100 µM throughout.
Turning to `COc1cc2c(NCCCCCO)ncnc2c(OC)c1OC`, the TGI in the assay on MOLT-4 leukemia, in the assay on NCI/ADR-RES ovarian, in the assay with HT29 colon, in the assay with MDA-MB-435, in the assay on SF-539 CNS and in the assay with MDA-MB-231 breast was more than 100 µM in each case. Moreover, the TGI with HCC-2998 colon, in the assay on SF-268 CNS, with SK-MEL-5 melanoma and with SW-620 colon was more than 100 µM in each case.
Regarding `COC(=O)c1ccc2nc(-c3cc4ccccc4n3C)n(CCCCOc3cc4c(cc3OC)C(=O)N3CCC[C@H]3C=N4)c2c1`, the GI50 with MOLT-4 leukemia is 0.298 µM; in the assay on NCI/ADR-RES ovarian, 3.02 µM; in the assay with HT29 colon, 0.929 µM; in the assay on MDA-MB-435 it was 0.677 µM; with SF-539 CNS, 0.881 µM; in the assay with MDA-MB-231 breast, 0.366 µM. Further, the GI50 in the assay on SF-268 CNS was 0.29 µM; in the assay on SK-MEL-5 melanoma it was 1.21 µM; with SW-620 colon, 0.389 µM. Also, the TGI turned out to be 9.8 µM with NCI/ADR-RES ovarian; 5.49 µM in the assay on HT29 colon; 1.77 µM in the assay on MDA-MB-435; 2.43 µM with SF-539 CNS; 2.17 µM in the assay on MDA-MB-231 breast; 0.925 µM in the assay on SF-268 CNS. Moreover, the TGI in the assay with SK-MEL-5 melanoma amounted to 2.48 µM; in the assay on SW-620 colon, 1.75 µM.
As to `CCc1ccccc1NC(=O)C(C#N)C1=C(Cl)C(=O)c2ccccc2C1=O` (stereo unspecified), the TGI was more than 100 µM in the assay on MOLT-4 leukemia; 34.2 µM in the assay with NCI/ADR-RES ovarian; 37.9 µM in the assay on HT29 colon; 63 µM with MDA-MB-435; 37.2 µM in the assay on SF-539 CNS; 22 µM in the assay with MDA-MB-231 breast. The TGI amounted to 49.8 µM in the assay on SF-268 CNS, 29.6 µM with SK-MEL-5 melanoma and 44 µM in the assay with SW-620 colon.
As for `CC(=O)OCC12CN(C#N)C3C4COC(CC41)C1(C(=O)N(C)c4ccccc41)C32` (stereo unspecified), the TGI in the assay on MOLT-4 leukemia is more than 100 µM; with NCI/ADR-RES ovarian, 95.8 µM; in the assay with HT29 colon, more than 100 µM; in the assay with MDA-MB-435 it was more than 100 µM; with MDA-MB-231 breast it was 64.9 µM; in the assay on HCC-2998 colon, 86.6 µM. The TGI in the assay with SF-268 CNS was more than 100 µM; with SK-MEL-5 melanoma, 86.3 µM; with SW-620 colon it was 59.6 µM.
Regarding `COC(=O)Oc1nn(C(=O)OC)c(=O)c2ccccc12`, the TGI in the assay on MOLT-4 leukemia, in the assay on NCI/ADR-RES ovarian, in the assay on MDA-MB-435, in the assay with SF-539 CNS, in the assay on MDA-MB-231 breast and with HCC-2998 colon was more than 100 µM in each case. Also, the TGI in the assay with SF-268 CNS, with SK-MEL-5 melanoma and in the assay on SW-620 colon was more than 100 µM throughout.
Turning to `N#CC(C#N)=CNCCN1CCN(C=C(C#N)C#N)CC1`, the TGI in the assay with MOLT-4 leukemia, with NCI/ADR-RES ovarian, with HT29 colon, with MDA-MB-435, in the assay on SF-539 CNS and in the assay on MDA-MB-231 breast was more than 100 µM in each case. Further, the TGI with SF-268 CNS, with SK-MEL-5 melanoma and in the assay with SW-620 colon was more than 100 µM in each case.
As to `O=Cc1cccc2ccc3ccccc3c12`, the TGI is 38.3 µM in the assay with NCI/ADR-RES ovarian; 54.2 µM in the assay on HT29 colon; 49.6 µM in the assay with MDA-MB-435; 23 µM with SF-539 CNS; 77.3 µM in the assay with MDA-MB-231 breast; 94 µM in the assay on HCC-2998 colon. Moreover, the TGI came out at 43.1 µM with SF-268 CNS, 39.6 µM in the assay on SK-MEL-5 melanoma and 74.3 µM with SW-620 colon.
In the case of `COC(=O)c1cc(NC(=O)c2cc(NC(=O)c3cc([N+](=O)[O-])n(C)c3)cn2C)cn1C`, the GI50 is more than 100 µM with NCI/ADR-RES ovarian; 7.74 µM with HT29 colon; more than 100 µM in the assay on MDA-MB-435; 56.1 µM with SF-539 CNS; 51 µM with MDA-MB-231 breast; 4.26 µM in the assay on HCC-2998 colon. Moreover, the GI50 was more than 100 µM in the assay on SF-268 CNS, 5.03 µM in the assay on SK-MEL-5 melanoma and more than 100 µM in the assay on SW-620 colon. Further, the TGI in the assay with NCI/ADR-RES ovarian was more than 100 µM; with HT29 colon, 31 µM; with MDA-MB-435, more than 100 µM; with SF-539 CNS it was more than 100 µM; with MDA-MB-231 breast, more than 100 µM; in the assay on HCC-2998 colon, 38.2 µM. Also, the results for the TGI with SF-268 CNS, in the assay on SK-MEL-5 melanoma and with SW-620 colon were more than 100 µM, 59 µM and more than 100 µM, respectively.
As to `COC1=CC(c2ccc[nH]2)=N/C1=C\c1[nH]c(C)c(C(=O)CCC(=O)Oc2ccc3c(c2)CCC2C3CC[C@]3(C)[C@@H](O)CC[C@@H]23)c1C` (stereo partly specified), the GI50 in the assay with NCI/ADR-RES ovarian was 4.58 µM; with MDA-MB-435, 3.25 µM; with SF-539 CNS, 3.69 µM; in the assay on MDA-MB-231 breast, 0.46 µM; in the assay with HCC-2998 colon, 4.05 µM; with SF-268 CNS, 2.91 µM. The GI50 was 1.46 µM in the assay with SK-MEL-5 melanoma and 0.816 µM with SW-620 colon. The TGI is more than 100 µM with NCI/ADR-RES ovarian; more than 100 µM with MDA-MB-435; 28.8 µM in the assay with SF-539 CNS; 2.55 µM in the assay with MDA-MB-231 breast; more than 100 µM in the assay on HCC-2998 colon; more than 100 µM in the assay with SF-268 CNS. Besides, the TGI in the assay on SK-MEL-5 melanoma stood at 2.91 µM; in the assay on SW-620 colon, 5.14 µM.
`Cc1ccc([Se](=C(C(=O)c2ccccc2)C(=O)c2ccccc2)c2ccc(C)cc2)cc1`: the TGI was 43.3 µM in the assay on MOLT-4 leukemia; more than 100 µM in the assay on NCI/ADR-RES ovarian; 35.2 µM in the assay on HT29 colon; 55 µM with MDA-MB-435; 66 µM in the assay on SF-539 CNS; 35.2 µM with MDA-MB-231 breast. The TGI with SF-268 CNS is more than 100 µM; with SK-MEL-5 melanoma, 37.2 µM; in the assay on SW-620 colon, more than 100 µM.
Consider `CCCCCCCCCCCCCC[n+]1ccccc1`, for which the GI50 in the assay on MOLT-4 leukemia was 0.618 µM; in the assay with NCI/ADR-RES ovarian, 8.65 µM; in the assay with HT29 colon, 0.269 µM; with MDA-MB-435 it was 0.549 µM; in the assay on SF-539 CNS, 1.28 µM; in the assay with MDA-MB-231 breast, 0.771 µM. Besides, the values for the GI50 with HCC-2998 colon, in the assay on SK-MEL-5 melanoma and with SW-620 colon were 0.877 µM, 0.369 µM and 0.779 µM, respectively. The TGI in the assay with MOLT-4 leukemia amounted to 2.38 µM; in the assay with NCI/ADR-RES ovarian it was 46.8 µM; in the assay on HT29 colon it was 1.46 µM; with MDA-MB-435, 1.87 µM; in the assay with SF-539 CNS it was 2.6 µM; in the assay on MDA-MB-231 breast, 2.52 µM. Also, the TGI with HCC-2998 colon stood at 2.31 µM; in the assay on SK-MEL-5 melanoma, 1.43 µM; in the assay on SW-620 colon, 2.59 µM.
Take `N#CC(C#N)=NNc1ccc2cn[nH]c2c1`: the TGI in the assay with MOLT-4 leukemia was 54.2 µM; in the assay with NCI/ADR-RES ovarian, more than 100 µM; in the assay on HT29 colon, more than 100 µM; with MDA-MB-435, more than 100 µM; with SF-539 CNS, more than 100 µM; in the assay on MDA-MB-231 breast, more than 100 µM. The TGI in the assay with SF-268 CNS, with SK-MEL-5 melanoma and with SW-620 colon was more than 100 µM throughout.
Turning to `Cc1cc(Cl)nc2ccc(Cc3ccc4nc(Cl)cc(C)c4c3)cc12`, the TGI is more than 100 µM with MOLT-4 leukemia; more than 100 µM in the assay with NCI/ADR-RES ovarian; more than 100 µM in the assay with HT29 colon; more than 100 µM in the assay with MDA-MB-435; 32 µM in the assay on SF-539 CNS; more than 100 µM in the assay with MDA-MB-231 breast. Moreover, the TGI with SF-268 CNS, in the assay with SK-MEL-5 melanoma and with SW-620 colon was more than 100 µM each time.
